Measured values as given in patent US7071340B2, “Fungicidal 1-benzoxepin derivatives” (Bayer Cropscience S.A., priority 2001, dated 2006).

What was measured:
[1] = test system: Septoria nodorum; test: Biological test on isolated fungi in culture medium, 96-well microplates (Example B2); type: cell-based; conditions: Parastagonospora nodorum, 120 h; dose of 50 ppm; culturing 5 days at 20° C.; optical density at 620 nm or 405 nm; read-out: inhibition of Septoria nodorum (percentage of inhibition of the growth, Abbott's formula)
Protocol: (§1) The test is carried out on isolated fungi in a culture medium, in 96-well microplates. The products are dissolved in acetonitrile and are then diluted to 1/50th in methanol, so as to distribute 50 μl for a dose of 50 ppm in each well. Once the compounds are distributed, the microplates are dried under a stream of nitrogen at 40° C. The culture medium and the inoculum are subsequently added.
(§2) The growth of the fungi is measured after culturing for 5 days at 20° C. by reading the optical density at 620 nm or 405 nm, depending on the strains. The effectiveness of the product is the percentage of inhibition of the growth of the fungi calculated according to Abbott's formula, the absorbance of the growth control wells and the absorbance of the treated wells being taken as reference values.
At a dose of 50 ppm, complete or good (at least 70%) inhibition of Septoria nodorum is observed with the compounds described in the following examples: 5, 28, 29, 30, 32, 33, 34, 40, 55, 57, 63, 65, 67, 68, 70, 72, 82 and 86.

[2] = test system: Botrytis cinerea; test: Biological test on isolated fungi in culture medium, 96-well microplates (Example B1); type: cell-based; conditions: 120 h, dose of 50 ppm, culturing 5 days at 20° C., optical density at 620 nm or 405 nm, read-out: inhibition of Botrytis cinerea (percentage of inhibition of the growth, Abbott's formula)
Protocol: as §1, §2
At a dose of 50 ppm, complete or good (at least 70%) inhibition of Botrytis cinerea is observed with the compounds described in the following examples: 28, 32, 47, 65, 68 and 70.

[3] = test system: Monilia fructigena; test: Biological test on isolated fungi in culture medium, 96-well microplates (Example B3); type: cell-based; conditions: 120 h, dose of 50 ppm, culturing 5 days at 20° C., optical density at 620 nm or 405 nm, read-out: inhibition of Monilia fructigena (percentage of inhibition of the growth, Abbott's formula)
Protocol: as §1, §2
At a dose of 50 ppm, complete or good (at least 70%) inhibition of Monilia fructigena is observed with the compounds described in the following examples: 28, 32 and 70.

[4] = test system: Magnaporthe orysae; test: tissue or blood; type: cell-based; conditions: 120 h, read-out: inhibition of Magnaporthe orysae (percentage of inhibition of the growth, Abbott's formula)
[5] = test system: Rhizoctonia solani; test: Biological test on isolated fungi in culture medium, 96-well microplates (Example B6); type: cell-based; conditions: 120 h, dose of 50 ppm, culturing 5 days at 20° C., optical density at 620 nm or 405 nm, read-out: inhibition of Rhizoctonia solani (percentage of inhibition of the growth, Abbott's formula)
Protocol: as §1, §2
At a dose of 50 ppm, complete or good (at least 70%) inhibition of Rhizoctonia solani is observed with the compounds described in the following examples: 28, 32, 55, 68 and 70.

[6] = test system: Mycosphaerella graminacola; test: Biological test on isolated fungi in culture medium, 96-well microplates (Example B7); type: cell-based; conditions: 120 h, dose of 50 ppm, culturing 5 days at 20° C., optical density at 620 nm or 405 nm, read-out: inhibition of Mycosphaerella graminacola (percentage of inhibition of the growth, Abbott's formula)
Protocol: as §1, §2
At a dose of 50 ppm, complete or good (at least 70%) inhibition of Mycosphaerella graminacola is observed with the compounds described in the following examples: 28, 32, 55 and 70.

[7] = test system: Venturia pirina; test: Biological test on isolated fungi in culture medium, 96-well microplates (Example B8); type: cell-based; conditions: Venturia pyrina, 120 h; dose of 50 ppm; culturing 5 days at 20° C.; optical density at 620 nm or 405 nm; read-out: inhibition of Venturia pirina (percentage of inhibition of the growth, Abbott's formula)
Protocol: as §1, §2
At a dose of 50 ppm, complete or good (at least 70%) inhibition of Venturia pirina is observed with the compounds described in the following example: 28.

Compound	melting point	inhibition at 50 ppm [1]	further results
COC(=O)c1ccc2c(c1)C=CC(=O)CO2 [Example 31, methyl 3-oxo-2,3-dihydro-1-benzoxepin-7-carboxylate]	98 °C		
O=Cc1ccc2c(c1)C=CC(=CCl)CO2 [Example 72, 3-(chloromethylene)-2,3-dihydro-1-benzoxepin-7-carbaldehyde]		≥ 70%	
COC(=O)c1ccc2c(c1)C=CC(=CCl)CO2 [Example 32, methyl 3-(chloromethylene)-2,3-dihydro-1-benzoxepin-7-carboxylate]	72 to 77 °C	≥ 70%	inhibition at 50 ppm [2]: ≥ 70%; inhibition at 50 ppm [3]: ≥ 70%; inhibition at 50 ppm [4]: ≥ 70%; inhibition at 50 ppm [5]: ≥ 70%; inhibition at 50 ppm [6]: ≥ 70%
C=C1COc2ccc(C(C)=O)cc2C(Cc2ccccc2)(S(=O)(=O)c2ccccc2)C1 (stereo not shown) [Example 18, 1-[5-benzyl-3-methylene-5-(phenylsulfonyl)-2,3,4,5-tetrahydro-1-benzoxepin-7-yl]ethanone]	131 to 132 °C		
COC(=O)c1ccc2c(c1)C=CC(=C(Cl)Cl)CO2 [Example 54, methyl 3-(dichloromethylene)-2,3-dihydro-1-benzoxepin-7-carboxylate]	119 to 121 °C		
CC(=O)c1ccc2c(c1)C=CC(=CCl)CO2 [Example 28, 1-[3-(chloromethylene)-2,3-dihydro-1-benzoxepin-7-yl]ethanone]		≥ 70%	inhibition at 50 ppm [2]: ≥ 70%; inhibition at 50 ppm [3]: ≥ 70%; inhibition at 50 ppm [4]: ≥ 70%; inhibition at 50 ppm [5]: ≥ 70%; inhibition at 50 ppm [6]: ≥ 70%; inhibition at 50 ppm [7]: ≥ 70%
CC(=O)c1ccc2c(c1)C(Cc1ccccc1)=CC(=CCl)CO2 [Example 30, 1-[5-benzyl-3-(chloromethylene)-2,3-dihydro-1-benzoxepin-7-yl]ethanone]		≥ 70%	
CC(=O)c1ccc2c(c1)C(Cc1ccccc1)=CC(=O)CO2 [Example 29, 7-acetyl-5-benzyl-1-benzoxepin-3(2H)-one]		≥ 70%	
O=C(O)c1ccc2c(c1)C=CC(=CCl)CO2 [Example 63, 3-(chloromethylene)-2,3-dihydro-1-benzoxepin-7-carboxylic acid]	> 260 °C	≥ 70%	
CC(=O)c1ccc2c(c1)CCC(=O)CO2 [Example 16, 7-acetyl-4,5-dihydro-1-benzoxepin-3(2H)-one]	80 to 82 °C		
COC(=O)c1ccc2c(c1)CCC(=CCl)CO2 [Example 5, methyl 3-(chloromethylene)-2,3,4,5-tetrahydro-1-benzoxepin-7-carboxylate]		≥ 70%	
C=C1C=Cc2cc(C(=O)Nc3ccccc3)ccc2OC1 [Example 41, 3-methylene-N-phenyl-2,3-dihydro-1-benzoxepin-7-carboxamide]	139 °C		
C=C1COc2ccc(C(C)=O)cc2C(S(=O)(=O)c2ccccc2)C1 (stereo not shown) [Example 13, 1-[3-methylene-5-(phenylsulfonyl)-2,3,4,5-tetrahydro-1-benzoxepin-7-yl]ethanone]	124 to 125 °C		
COC(=O)c1ccc2c(c1)C(Cc1ccccc1)=CC(=O)CO2 [Example 33, methyl 5-benzyl-3-oxo-2,3-dihydro-1-benzoxepin-7-carboxylate]		≥ 70%	
C=C1COc2ccc(C(=O)OC)cc2C(Cc2ccccc2)(S(=O)(=O)c2ccccc2)C1 (stereo not shown) [Example 6, methyl 5-benzyl-3-methylene-5-(phenylsulfonyl)-2,3,4,5-tetrahydro-1-benzoxepin-7-carboxylate]	164 to 165 °C		
COC(=O)c1ccc2c(c1)C(Cc1ccccc1)=CC(=CCl)CO2 [Example 34, methyl 5-benzyl-3-(chloromethylene)-2,3-dihydro-1-benzoxepin-7-carboxylate]		≥ 70%	
C=C1C=Cc2cc(C(=O)O)ccc2OC1 [Example 40, 3-methylene-2,3-dihydro-1-benzoxepin-7-carboxylic acid]	188 °C	≥ 70%	
